Assay results from publication PMC10248867, “Receptor-like cytoplasmic kinase ScRIPK in sugarcane regulates disease resistance and drought tolerance in Arabidopsis” (Frontiers in Plant Science, 2023).

Key:
Assay in all cases: X-ray crystal structure, […] A
Assay type in all cases: binding
[1] = molecular target: T1, ScRIPK-KD (ScRIPK kinase domain) (Saccharum hybrid cultivar, UniProt A0ACD6BAX3, S187A/T188A); details: crystallised in 0.1 M HEPES pH 7.5, 4.3 M sodium chloride, 291 K; active site
T1 construct: gene NCGR_LOCUS634; kinase domain 72-378 of 425 aa; PRSF-duet vector, Ni-NTA purified from E. coli BL21(DE3); wild type autophosphorylated at T250, S253, T254; one kinase domain per asymmetric unit
T1 sequence (A0ACD6BAX3 entry or part of it S187A/T188A): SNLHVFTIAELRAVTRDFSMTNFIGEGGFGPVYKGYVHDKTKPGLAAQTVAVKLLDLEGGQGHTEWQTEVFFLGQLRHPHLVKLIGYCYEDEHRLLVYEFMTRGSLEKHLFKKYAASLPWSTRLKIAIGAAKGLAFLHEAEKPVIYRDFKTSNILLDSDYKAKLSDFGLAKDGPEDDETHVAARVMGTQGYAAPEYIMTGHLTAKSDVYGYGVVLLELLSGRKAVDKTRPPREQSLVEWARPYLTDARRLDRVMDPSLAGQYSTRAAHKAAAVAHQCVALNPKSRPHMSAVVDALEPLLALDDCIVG

[2] = molecular target: T2, ScRIPK-KD (ScRIPK kinase domain) (Saccharum hybrid cultivar, UniProt A0ACD6BAX3); details: Mg2+ bound; crystallised in 0.1 M HEPES pH 7.5, 40% v/v PEG 400, 291 K; active site
T2 construct: gene NCGR_LOCUS634; kinase domain 72-378 of 425 aa; PRSF-duet vector, Ni-NTA purified from E. coli BL21(DE3); wild type autophosphorylated at T250, S253, T254; one kinase domain per asymmetric unit
T2 sequence (A0ACD6BAX3 entry or part of it): as the sequence (A0ACD6BAX3 entry or part of it S187A/T188A) above, with A182S, A183T counted along it

[3] = molecular target: T3, ScRIPK-KD (ScRIPK kinase domain) (Saccharum hybrid cultivar, UniProt A0ACD6BAX3, K58R); details: crystallised in 0.1 M HEPES pH 7.5, 4.3 M sodium chloride, 291 K; active site
T3 construct: gene NCGR_LOCUS634; kinase domain 72-378 of 425 aa; PRSF-duet vector, Ni-NTA purified from E. coli BL21(DE3); wild type autophosphorylated at T250, S253, T254; one kinase domain per asymmetric unit
T3 sequence (A0ACD6BAX3 entry or part of it K58R): as the sequence (A0ACD6BAX3 entry or part of it S187A/T188A) above, with K53R, A182S, A183T counted along it

## Nc1ncnc2c1ncn2[C@@H]1O[C@H](COP(=O)(O)OP(=O)(O)O)[C@@H](O)[C@H]1O [ADP]
[1]
  X-ray crystal structure, 1.95 A: In the ScRIPK-KD S253A|T254A mutant structure, Y169 and E170–M172 formed a deep cavity

## Nc1ncnc2c1ncn2[C@@H]1O[C@H](COP(=O)(O)OP(=O)(O)OP(=O)(O)O)[C@@H](O)[C@H]1O [ATP]
[2]
  X-ray crystal structure, 2.10 A: The ScRIPK-ATP protein complex crystal was successfully obtained in the reservoir solution
[3]
  X-ray crystal structure, 1.68 A: the mutant protein ScRIPK-KD K124R was purified and crystallized with ATP
